The results in this text go back to PubChem BioAssay (NCI).

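Protocol summary: plate cells (96-well), add compound at 5 concentrations, incubate 48 h, interpolate endpoints linearly. The concentration for 50% growth inhibition is given as GI50. TGI is the concentration that stops growth completely.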 Bounds are passed on as bounds.

Some test systems named below: DU-145 prostate; HCT-116 colon; M14 melanoma; MCF7 breast; NCI-H460 lung; OVCAR-4 ovarian; OVCAR-5 ovarian; SF-539 CNS; SK-OV-3 ovarian; SR leukemia.
Holding throughout (test): NCI-60 cell line screen, 48 h

In the case of `CC[C@@H]1[C@@H](C)O[C@@](O)([C@@H](C)[C@H](O)[C@H](C)[C@H]2OC(=O)/C=C/C=C/[C@H](C)[C@@H]([C@@H](C)[C@@H](O)[C@H](C)[C@@]3(O)C[C@@H](O[C@H]4C[C@@H](O)[C@H](O)C(C)O4)[C@H](CC)[C@@H](C)O3)OC(=O)/C=C/C=C/[C@@H]2C)C[C@H]1O[C@@H]1C[C@@H](O)[C@H](O)C(C)O1` (stereo not given in full), the GI50 in the experiment with DU-145 prostate is 0.0732 µM; in the experiment with HCT-116 colon, 0.0688 µM; in the experiment with M14 melanoma it was 0.0653 µM; with MCF7 breast, 0.0843 µM; with NCI-H460 lung it was 0.0569 µM; in the experiment on OVCAR-4 ovarian it was 0.0741 µM. The GI50 with OVCAR-5 ovarian is 0.0839 µM; in the experiment with SF-539 CNS it was 0.0708 µM; in the experiment with SK-OV-3 ovarian, 0.072 µM. Further, the TGI was found to be 0.169 µM with DU-145 prostate; 0.165 µM in the experiment on HCT-116 colon; 0.142 µM in the experiment on M14 melanoma; 0.287 µM with MCF7 breast; 0.115 µM in the experiment on NCI-H460 lung; 0.192 µM in the experiment on OVCAR-4 ovarian. In addition, the TGI in the experiment with OVCAR-5 ovarian came to 0.316 µM; with SF-539 CNS it was 0.182 µM; in the experiment with SK-OV-3 ovarian it was 0.189 µM.

Regarding `CSc1ccc(-c2ccccc(=O)c2O)cc1`, the GI50 in the experiment with DU-145 prostate is 0.849 µM; in the experiment on HCT-116 colon, 0.506 µM; in the experiment on M14 melanoma, 0.347 µM; with MCF7 breast, 0.322 µM; in the experiment on NCI-H460 lung, 0.371 µM; with OVCAR-4 ovarian, 0.271 µM. Also, the GI50 is 1.64 µM with OVCAR-5 ovarian, 0.394 µM in the experiment with SF-539 CNS, 0.551 µM with SK-OV-3 ovarian and 0.404 µM with SR leukemia. Further, the TGI in the experiment with DU-145 prostate is more than 100 µM; in the experiment on HCT-116 colon, 37.4 µM; in the experiment with M14 melanoma it was 2.68 µM; with MCF7 breast it was more than 100 µM; in the experiment with NCI-H460 lung, 10.8 µM; in the experiment with OVCAR-4 ovarian, 67.3 µM. Moreover, the TGI is more than 100 µM with OVCAR-5 ovarian, 11.6 µM in the experiment on SF-539 CNS, more than 100 µM in the experiment with SK-OV-3 ovarian and 14.5 µM in the experiment with SR leukemia.

Take `CCOC(=O)c1ccc2c(c1)Cc1cc([N+](=O)[O-])ccc1-2`: the TGI is more than 100 µM with DU-145 prostate; more than 100 µM in the experiment on HCT-116 colon; more than 100 µM with M14 melanoma; 71.2 µM with MCF7 breast; more than 100 µM in the experiment on NCI-H460 lung; 56 µM in the experiment with OVCAR-4 ovarian. For the same compound, the TGI with OVCAR-5 ovarian, with SF-539 CNS and with SK-OV-3 ovarian was more than 100 µM throughout.

With `CCOC(=O)C1=C(C)N=c2s/c(=C\c3ccccc3O)c(=O)n2C1c1ccc(OC)c2ccccc12` (stereo not given), the GI50 was 8.3 µM with DU-145 prostate; 3.26 µM in the experiment with HCT-116 colon; 4.36 µM in the experiment on MCF7 breast; 8.92 µM with NCI-H460 lung; 2.01 µM in the experiment with OVCAR-4 ovarian; 17.1 µM in the experiment on OVCAR-5 ovarian. For the same compound, the GI50 was 1.76 µM in the experiment with SF-539 CNS, 14 µM with SK-OV-3 ovarian and 4.4 µM in the experiment with SR leukemia. Further, the TGI in the experiment on DU-145 prostate is 32 µM; in the experiment on HCT-116 colon it was 12.1 µM; in the experiment with MCF7 breast, 32 µM; in the experiment on NCI-H460 lung, 39.5 µM; with OVCAR-4 ovarian, 5.18 µM; in the experiment on OVCAR-5 ovarian, more than 100 µM. For the same compound, the TGI was found to be 3.67 µM in the experiment with SF-539 CNS, 27 µM in the experiment on SK-OV-3 ovarian and 58.8 µM in the experiment on SR leukemia.

For the compound `CC12OOC(c3ccccc31)c1c2ccc2ccccc12` (stereo not given), the TGI in the experiment with DU-145 prostate came to 32.4 µM; with HCT-116 colon, 3.21 µM; in the experiment with M14 melanoma, 22.6 µM; in the experiment with MCF7 breast, 32.4 µM; in the experiment on NCI-H460 lung, 5.48 µM; in the experiment with OVCAR-4 ovarian, 2.43 µM. Besides, the TGI in the experiment with OVCAR-5 ovarian is 33.6 µM; in the experiment with SF-539 CNS, 22.3 µM; with SK-OV-3 ovarian it was 34.3 µM; with SR leukemia it was 3.24 µM.

As to `O=C(c1ccco1)c1nc2cc(C(F)(F)F)ccc2nc1C(F)(F)F`, the GI50 was more than 100 µM in the experiment on DU-145 prostate; more than 100 µM with HCT-116 colon; more than 100 µM in the experiment on M14 melanoma; 40.6 µM with MCF7 breast; more than 100 µM in the experiment on NCI-H460 lung; 56.4 µM in the experiment with OVCAR-4 ovarian. Further, the GI50 in the experiment with OVCAR-5 ovarian is more than 100 µM; in the experiment on SF-539 CNS, more than 100 µM; in the experiment with SK-OV-3 ovarian, more than 100 µM; with SR leukemia it was 40.5 µM. Moreover, the TGI in the experiment with DU-145 prostate, in the experiment on HCT-116 colon, in the experiment on M14 melanoma, with MCF7 breast, in the experiment with NCI-H460 lung and in the experiment with OVCAR-4 ovarian was more than 100 µM throughout. For the same compound, the TGI in the experiment on OVCAR-5 ovarian, in the experiment on SF-539 CNS, with SK-OV-3 ovarian and in the experiment with SR leukemia was more than 100 µM in each case.

Take `O=C(COc1ccc(/C=C2\COc3ccccc3C2=O)cc1)Nc1nccs1`: the GI50 was 4.8 µM with DU-145 prostate; 3.75 µM in the experiment with HCT-116 colon; 6.71 µM in the experiment on M14 melanoma; 3.92 µM with MCF7 breast; 18.6 µM in the experiment on NCI-H460 lung; 20.5 µM in the experiment with OVCAR-4 ovarian. Further, the GI50 was 16.7 µM with OVCAR-5 ovarian, 15 µM in the experiment with SF-539 CNS, 30.9 µM in the experiment on SK-OV-3 ovarian and 1.31 µM with SR leukemia. Also, the TGI in the experiment on DU-145 prostate came to 14.8 µM; in the experiment on HCT-116 colon, 12.8 µM; in the experiment on M14 melanoma it was 20 µM; with MCF7 breast it was 14.2 µM; in the experiment on NCI-H460 lung, 64.6 µM; in the experiment with OVCAR-4 ovarian it was 68.5 µM. Further, the TGI is 32.9 µM in the experiment on OVCAR-5 ovarian, 29.4 µM with SF-539 CNS, 69.5 µM with SK-OV-3 ovarian and 3.23 µM in the experiment with SR leukemia.

For the compound `COc1ccc2sc3cccc(NCCN(C)C)c3c(=O)c2c1`, the GI50 with DU-145 prostate is 4.02 µM; with HCT-116 colon, 2.78 µM; in the experiment with M14 melanoma, 2 µM; in the experiment on MCF7 breast, 1.76 µM; in the experiment on NCI-H460 lung it was 2.57 µM; with OVCAR-4 ovarian it was 3.72 µM. Further, the GI50 is 3.42 µM with OVCAR-5 ovarian, 3.52 µM in the experiment with SF-539 CNS, 4.26 µM in the experiment on SK-OV-3 ovarian and 2.29 µM with SR leukemia. Further, the TGI in the experiment on DU-145 prostate was 13.5 µM; in the experiment with HCT-116 colon it was 9.69 µM; with M14 melanoma, 4.1 µM; in the experiment on MCF7 breast, 3.9 µM; in the experiment with NCI-H460 lung, 6.22 µM; in the experiment on OVCAR-4 ovarian, 16.5 µM. The TGI stood at 14.5 µM with OVCAR-5 ovarian, 13.3 µM in the experiment on SF-539 CNS, 15 µM in the experiment with SK-OV-3 ovarian and 5.86 µM in the experiment with SR leukemia.
